Measured values from ChEMBL document CHEMBL4622974, “Leveraging an Open Science Drug Discovery Model to Develop CNS-Penetrant ALK2 Inhibitors for the Treatment of Diffuse Intrinsic Pontine Glioma” (J Med Chem, 2020).
Calls of active or inactive are those of the source. The rule behind the calls is not given here.

Tests used:
[1] = target: Bone morphogenetic protein receptor type-1A (Homo sapiens, UniProt P36894); experiment: Inhibition of human ALK3 using casein as substrate in presence of [gamma-33P]-ATP by radiometric hotspot assay
[2] = target: Bone morphogenetic protein receptor type-1B (Homo sapiens, UniProt O00238); experiment: Inhibition of human ALK6 using casein as substrate in presence of [gamma-33P]-ATP by radiometric hotspot assay
[3] = target: Serine/threonine-protein kinase SIK2 (Homo sapiens, UniProt Q9H0K1); experiment: Inhibition of SIK2 (unknown origin)
[4] = target: Cannabinoid receptor 1 (CB1) (Homo sapiens, UniProt P21554); experiment: Inhibition of recombinant human CB1 at 10 uM incubated for 60 mins by scintillation counting method
[5] = target: Alpha-2A adrenergic receptor (Homo sapiens, UniProt P08913); experiment: Inhibition of recombinant human adrenergic alpha2A receptor at 10 uM incubated for 60 mins by scintillation counting method relative to control
hERG (KCNH2) = hERG (KCNH2) (Homo sapiens, UniProt Q12809); experiment: Displacement of [3H]dofetilide from recombinant human ERG at 10 uM after 60 mins by scintillation counting analysis; details: probe [3H]dofetilide
Cannabinoid receptor 1 = Cannabinoid receptor 1 (Homo sapiens, UniProt P21554); experiment: Inhibition of recombinant human CB1 incubated for 60 mins by scintillation counting method
Cytochrome P450 1A2 = Cytochrome P450 1A2 (Homo sapiens, UniProt P05177); experiment: Inhibition of CYP1A2 in human liver microsomes using phenacetin as substrate incubated for 20 mins in presence of NADPH by LC/MS/MS analysis; assay type: ADME
Cytochrome P450 2B6 = Cytochrome P450 2B6 (Homo sapiens, UniProt P20813); experiment: Inhibition of CYP2B6 in human liver microsomes using bupropion as substrate incubated for 20 mins in presence of NADPH by LC/MS/MS analysis; assay type: ADME
Cytochrome P450 2C8 = Cytochrome P450 2C8 (Homo sapiens, UniProt P10632); experiment: Inhibition of CYP2C8 in human liver microsomes using paclitaxel as substrate incubated for 20 mins in presence of NADPH by LC/MS/MS analysis; assay type: ADME
Cytochrome P450 2C19 = Cytochrome P450 2C19 (Homo sapiens, UniProt P33261); experiment: Inhibition of CYP2C19 in human liver microsomes using mephenytoin as substrate incubated for 20 mins in presence of NADPH by LC/MS/MS analysis; assay type: ADME
Cytochrome P450 3A4 = Cytochrome P450 3A4 (Homo sapiens, UniProt P08684); experiment: Inhibition of CYP3A4 in human liver microsomes using midazolam as substrate incubated for 5 mins in presence of NADPH by LC/MS/MS analysis; assay type: ADME
[6] = Ratio of drug level in brain to plasma in CD-1 mouse at 10 mg/kg, po measured at 2 hrs; assay type: ADME, organism-based; details: brain and plasma, read-out: BPR
[7] = Unbound plasma concentration in CD-1 mouse […] at 1 mg/kg, iv measured at 2 hrs by LC/MS/MS method; assay type: ADME, organism-based; details: in vivo
[8] = Protein binding in CD-1 mouse plasma at 1 mg/kg, iv measured at 2 hrs by LC/MS/MS method; assay type: ADME, organism-based; details: read-out: PPB
[9] = Toxicity in C57BL/6 mouse assessed as mouse death at 25 mg/kg, po QD administered for 5 days measured after 24 hrs; assay type: organism-based; details: in vivo
[10] = Toxicity in C57BL/6 mouse assessed as mouse death at 25 mg/kg, po BID administered for 5 days measured after 24 hrs; assay type: organism-based; details: in vivo
[11] = Toxicity in C57BL/6 mouse assessed as mouse death at 100 mg/kg, po QD administered for 5 days measured after 24 hrs; assay type: organism-based; details: in vivo
[12] = Toxicity in C57BL/6 mouse assessed as body weight loss at 100 mg/kg, po QD administered for 5 days measured after 24 hrs relative to control; assay type: organism-based; details: in vivo
[13] = Toxicity in C57BL/6 mouse assessed as gross pathology at 25 mg/kg, po BID administered for 5 days measured after 24 hrs relative to control; assay type: organism-based; details: in vivo
[14] = Mutagenicity in Salmonella typhimurium by mini Ames test; assay type: toxicity; details: salmonella enterica subsp. enterica serovar typhimurium
Activin receptor type-1 = target: T1, Activin receptor type-1 (Homo sapiens, UniProt Q04771); experiment: Inhibition of human ALK2 using casein as substrate in presence of [gamma-33P]-ATP by radiometric hotspot assay
T1 sequence (Q04771 whole entry): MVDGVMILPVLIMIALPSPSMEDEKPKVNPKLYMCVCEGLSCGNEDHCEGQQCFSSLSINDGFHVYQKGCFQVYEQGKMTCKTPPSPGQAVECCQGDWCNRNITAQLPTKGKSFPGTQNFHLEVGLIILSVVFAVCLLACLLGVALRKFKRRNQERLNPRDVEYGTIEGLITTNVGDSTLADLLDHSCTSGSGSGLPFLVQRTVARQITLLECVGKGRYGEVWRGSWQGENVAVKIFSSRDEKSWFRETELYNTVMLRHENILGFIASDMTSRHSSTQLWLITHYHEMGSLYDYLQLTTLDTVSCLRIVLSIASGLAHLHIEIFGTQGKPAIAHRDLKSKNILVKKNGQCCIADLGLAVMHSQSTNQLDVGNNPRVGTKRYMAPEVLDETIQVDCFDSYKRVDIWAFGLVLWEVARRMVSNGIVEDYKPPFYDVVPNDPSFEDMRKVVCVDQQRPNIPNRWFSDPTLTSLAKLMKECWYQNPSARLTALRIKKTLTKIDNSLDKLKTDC

TGF-beta receptor type-1 [15] = target: T2, TGF-beta receptor type-1 (Homo sapiens, UniProt P36897); experiment: Inhibition of human ALK5 using casein as substrate in presence of [gamma-33P]-ATP by radiometric hotspot assay; assay type: ADME
T2 sequence (P36897 whole entry): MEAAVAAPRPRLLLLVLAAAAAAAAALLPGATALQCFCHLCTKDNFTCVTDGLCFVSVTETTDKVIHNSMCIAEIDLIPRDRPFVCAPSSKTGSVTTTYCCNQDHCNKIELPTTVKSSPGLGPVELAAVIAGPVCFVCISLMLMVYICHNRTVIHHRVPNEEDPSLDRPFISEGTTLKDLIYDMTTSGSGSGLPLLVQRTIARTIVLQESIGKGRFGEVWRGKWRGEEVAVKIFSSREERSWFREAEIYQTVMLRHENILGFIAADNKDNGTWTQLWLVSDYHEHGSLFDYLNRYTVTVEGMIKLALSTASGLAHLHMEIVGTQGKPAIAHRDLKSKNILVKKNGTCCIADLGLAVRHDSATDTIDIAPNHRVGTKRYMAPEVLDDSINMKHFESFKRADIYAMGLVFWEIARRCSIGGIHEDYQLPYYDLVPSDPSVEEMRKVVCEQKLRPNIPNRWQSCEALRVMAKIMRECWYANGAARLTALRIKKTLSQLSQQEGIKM

TGF-beta receptor type-1 [16] = target: T2, TGF-beta receptor type-1; experiment: Inhibition of recombinant human ALK5 expressed in HEK293 cells transfected with CAGA-luciferase and Renilla luciferase reporter after 24 hrs by dual luciferase reporter assay; assay type: cell-based
[17] = target: Voltage-gated inwardly rectifying potassium channel KCNH2 (Homo sapiens, UniProt Q12809); experiment: Inhibition of human ERG expressed in HEK293 cells after 5 mins by IonWorks barracuda patch clamp method; assay type: cell-based
[18] = target: Tyrosine-protein kinase Lyn (Homo sapiens) (UniProt P07948); experiment: Inhibition of LYN (unknown origin)
Tyrosine-protein kinase Lyn (Homo sapiens), sequence (P07948 2-512 limits assumed): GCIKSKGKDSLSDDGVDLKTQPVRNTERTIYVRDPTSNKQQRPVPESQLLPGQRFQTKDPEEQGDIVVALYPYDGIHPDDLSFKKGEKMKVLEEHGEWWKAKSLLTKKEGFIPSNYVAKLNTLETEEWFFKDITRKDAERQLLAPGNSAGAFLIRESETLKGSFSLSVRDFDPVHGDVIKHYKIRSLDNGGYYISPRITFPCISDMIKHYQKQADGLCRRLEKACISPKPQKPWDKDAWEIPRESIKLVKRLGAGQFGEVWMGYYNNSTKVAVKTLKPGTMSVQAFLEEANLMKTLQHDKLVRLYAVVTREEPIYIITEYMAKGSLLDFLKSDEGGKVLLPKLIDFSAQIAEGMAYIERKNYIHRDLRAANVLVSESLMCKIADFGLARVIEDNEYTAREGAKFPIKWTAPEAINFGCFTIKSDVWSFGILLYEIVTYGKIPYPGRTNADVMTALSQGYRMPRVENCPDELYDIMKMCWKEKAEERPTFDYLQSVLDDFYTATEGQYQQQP

Bone morphogenetic protein receptor type-1A, sequence (P36894 whole entry): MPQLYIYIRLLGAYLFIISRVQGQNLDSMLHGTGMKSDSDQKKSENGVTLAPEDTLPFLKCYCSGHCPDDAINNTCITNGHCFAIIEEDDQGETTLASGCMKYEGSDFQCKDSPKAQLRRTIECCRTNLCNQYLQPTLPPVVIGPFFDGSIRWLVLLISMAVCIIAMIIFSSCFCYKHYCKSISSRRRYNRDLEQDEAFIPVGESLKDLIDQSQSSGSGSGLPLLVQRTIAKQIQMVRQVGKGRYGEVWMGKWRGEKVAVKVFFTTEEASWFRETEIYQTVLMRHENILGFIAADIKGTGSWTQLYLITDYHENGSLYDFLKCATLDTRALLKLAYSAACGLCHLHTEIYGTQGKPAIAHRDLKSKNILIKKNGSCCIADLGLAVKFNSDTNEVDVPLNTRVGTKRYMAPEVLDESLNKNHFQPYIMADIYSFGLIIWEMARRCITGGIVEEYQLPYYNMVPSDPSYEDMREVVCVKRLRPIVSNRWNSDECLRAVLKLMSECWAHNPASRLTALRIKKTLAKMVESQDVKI
Serine/threonine-protein kinase SIK2, sequence (Q9H0K1 whole entry): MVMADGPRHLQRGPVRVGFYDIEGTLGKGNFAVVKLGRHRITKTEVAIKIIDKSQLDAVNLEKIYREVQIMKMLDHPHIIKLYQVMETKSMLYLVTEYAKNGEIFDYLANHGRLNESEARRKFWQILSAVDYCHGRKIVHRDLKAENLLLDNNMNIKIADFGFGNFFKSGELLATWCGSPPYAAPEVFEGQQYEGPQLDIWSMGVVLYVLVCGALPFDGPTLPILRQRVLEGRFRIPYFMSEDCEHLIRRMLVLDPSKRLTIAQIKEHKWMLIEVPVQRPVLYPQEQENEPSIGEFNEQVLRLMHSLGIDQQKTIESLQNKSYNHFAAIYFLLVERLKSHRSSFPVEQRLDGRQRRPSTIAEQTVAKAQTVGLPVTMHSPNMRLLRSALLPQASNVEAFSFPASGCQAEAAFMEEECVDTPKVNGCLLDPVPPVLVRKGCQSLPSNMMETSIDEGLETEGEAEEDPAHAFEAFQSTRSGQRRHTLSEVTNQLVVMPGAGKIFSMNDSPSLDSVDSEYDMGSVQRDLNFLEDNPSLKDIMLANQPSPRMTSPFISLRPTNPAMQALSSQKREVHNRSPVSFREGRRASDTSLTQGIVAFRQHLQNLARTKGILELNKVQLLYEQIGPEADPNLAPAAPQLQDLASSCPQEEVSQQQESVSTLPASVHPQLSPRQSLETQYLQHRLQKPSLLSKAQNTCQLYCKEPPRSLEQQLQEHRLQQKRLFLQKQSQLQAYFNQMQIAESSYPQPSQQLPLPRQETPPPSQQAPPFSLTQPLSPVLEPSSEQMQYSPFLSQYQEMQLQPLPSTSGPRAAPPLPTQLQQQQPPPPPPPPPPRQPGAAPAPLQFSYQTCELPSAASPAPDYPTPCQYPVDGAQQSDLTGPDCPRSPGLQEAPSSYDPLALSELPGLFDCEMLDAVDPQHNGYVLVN
Cytochrome P450 2C8, sequence (P10632 whole entry): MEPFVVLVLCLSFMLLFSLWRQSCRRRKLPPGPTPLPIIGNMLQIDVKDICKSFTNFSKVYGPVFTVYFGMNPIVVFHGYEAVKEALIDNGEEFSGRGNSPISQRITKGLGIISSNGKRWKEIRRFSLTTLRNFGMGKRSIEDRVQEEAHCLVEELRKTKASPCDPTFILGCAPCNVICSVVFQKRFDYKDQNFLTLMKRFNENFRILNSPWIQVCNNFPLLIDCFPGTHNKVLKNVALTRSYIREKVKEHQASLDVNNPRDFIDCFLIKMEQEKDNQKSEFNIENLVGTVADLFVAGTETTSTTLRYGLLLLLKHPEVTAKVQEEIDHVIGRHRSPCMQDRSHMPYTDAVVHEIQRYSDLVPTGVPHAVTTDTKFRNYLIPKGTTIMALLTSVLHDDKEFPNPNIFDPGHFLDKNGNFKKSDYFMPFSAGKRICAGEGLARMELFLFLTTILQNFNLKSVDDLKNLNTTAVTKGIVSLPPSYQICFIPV
Cytochrome P450 2B6, sequence (P20813 whole entry): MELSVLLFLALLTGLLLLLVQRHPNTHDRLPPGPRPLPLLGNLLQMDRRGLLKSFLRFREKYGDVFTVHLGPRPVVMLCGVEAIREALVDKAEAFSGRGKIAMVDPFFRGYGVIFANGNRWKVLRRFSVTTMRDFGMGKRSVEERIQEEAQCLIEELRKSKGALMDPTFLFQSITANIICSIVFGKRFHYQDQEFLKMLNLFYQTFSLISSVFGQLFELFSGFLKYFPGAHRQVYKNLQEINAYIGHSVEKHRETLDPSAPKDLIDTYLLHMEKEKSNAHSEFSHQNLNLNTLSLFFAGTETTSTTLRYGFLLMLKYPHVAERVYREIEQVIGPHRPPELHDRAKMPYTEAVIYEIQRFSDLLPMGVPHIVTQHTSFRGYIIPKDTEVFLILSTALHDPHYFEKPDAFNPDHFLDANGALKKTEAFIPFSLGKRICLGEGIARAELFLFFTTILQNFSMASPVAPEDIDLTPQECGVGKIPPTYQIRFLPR
Cytochrome P450 3A4, sequence (P08684 whole entry): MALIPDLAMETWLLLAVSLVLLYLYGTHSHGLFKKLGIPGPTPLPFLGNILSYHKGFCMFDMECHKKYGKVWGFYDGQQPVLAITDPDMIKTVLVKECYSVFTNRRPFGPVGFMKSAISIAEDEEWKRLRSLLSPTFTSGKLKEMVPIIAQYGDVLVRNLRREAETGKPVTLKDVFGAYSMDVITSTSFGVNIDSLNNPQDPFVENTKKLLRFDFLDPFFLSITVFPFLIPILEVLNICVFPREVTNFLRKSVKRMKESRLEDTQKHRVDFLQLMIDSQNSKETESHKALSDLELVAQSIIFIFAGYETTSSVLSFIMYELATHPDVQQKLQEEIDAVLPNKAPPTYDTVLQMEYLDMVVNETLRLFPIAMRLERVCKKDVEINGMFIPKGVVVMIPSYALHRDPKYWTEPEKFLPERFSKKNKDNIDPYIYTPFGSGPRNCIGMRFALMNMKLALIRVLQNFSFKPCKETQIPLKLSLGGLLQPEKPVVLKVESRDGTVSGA
Cytochrome P450 2C19, sequence (P33261 whole entry): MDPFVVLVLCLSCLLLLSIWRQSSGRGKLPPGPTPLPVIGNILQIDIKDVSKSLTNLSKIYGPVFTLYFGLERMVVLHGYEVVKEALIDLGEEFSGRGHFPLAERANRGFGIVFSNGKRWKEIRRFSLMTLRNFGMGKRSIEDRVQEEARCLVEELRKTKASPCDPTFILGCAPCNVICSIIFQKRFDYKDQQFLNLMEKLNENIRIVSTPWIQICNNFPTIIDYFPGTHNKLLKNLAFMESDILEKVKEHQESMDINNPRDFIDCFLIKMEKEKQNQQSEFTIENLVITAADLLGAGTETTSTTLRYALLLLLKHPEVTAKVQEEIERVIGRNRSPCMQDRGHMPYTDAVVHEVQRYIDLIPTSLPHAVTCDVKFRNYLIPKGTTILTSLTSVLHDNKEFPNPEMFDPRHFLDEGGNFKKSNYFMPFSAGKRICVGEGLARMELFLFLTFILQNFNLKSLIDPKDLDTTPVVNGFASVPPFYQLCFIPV
Cannabinoid receptor 1, sequence (P21554 whole entry): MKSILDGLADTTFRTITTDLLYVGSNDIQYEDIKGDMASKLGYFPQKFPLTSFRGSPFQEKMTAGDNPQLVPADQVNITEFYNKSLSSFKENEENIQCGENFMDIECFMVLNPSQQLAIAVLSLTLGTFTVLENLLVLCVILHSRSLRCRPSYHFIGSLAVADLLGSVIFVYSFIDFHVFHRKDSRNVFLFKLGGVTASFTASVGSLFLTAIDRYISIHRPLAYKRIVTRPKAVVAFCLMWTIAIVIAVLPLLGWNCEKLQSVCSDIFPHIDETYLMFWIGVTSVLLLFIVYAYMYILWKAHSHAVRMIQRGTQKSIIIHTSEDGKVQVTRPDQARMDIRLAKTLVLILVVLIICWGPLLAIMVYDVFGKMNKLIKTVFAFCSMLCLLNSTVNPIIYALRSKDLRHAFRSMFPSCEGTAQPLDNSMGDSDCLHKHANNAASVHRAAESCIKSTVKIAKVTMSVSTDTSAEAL
Cannabinoid receptor 1 (CB1), sequence (P21554 whole entry): as above
Cytochrome P450 1A2, sequence (P05177 whole entry): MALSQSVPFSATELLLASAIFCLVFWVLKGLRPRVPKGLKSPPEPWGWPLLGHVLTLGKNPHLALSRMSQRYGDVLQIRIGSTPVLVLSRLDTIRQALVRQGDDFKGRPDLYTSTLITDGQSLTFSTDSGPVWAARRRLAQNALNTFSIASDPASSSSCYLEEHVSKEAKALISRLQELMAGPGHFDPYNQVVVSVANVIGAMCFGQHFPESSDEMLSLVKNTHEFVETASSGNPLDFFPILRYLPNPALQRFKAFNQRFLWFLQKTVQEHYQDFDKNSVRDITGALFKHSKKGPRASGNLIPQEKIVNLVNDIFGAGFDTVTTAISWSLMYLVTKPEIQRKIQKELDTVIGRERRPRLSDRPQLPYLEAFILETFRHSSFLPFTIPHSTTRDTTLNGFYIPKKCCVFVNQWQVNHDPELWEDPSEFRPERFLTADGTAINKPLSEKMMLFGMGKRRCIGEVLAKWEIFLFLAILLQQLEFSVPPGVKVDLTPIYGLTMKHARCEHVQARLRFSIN

Q: With `COc1cc(-c2cncc(-c3ccc(N4CCNCC4)cc3)c2C)cc(OC)c1OC` as the compound, how does the IC50 [1] read?
A: 428 nM

Q: What about the IC50 [2] of the same compound?
A: 68 nM

Q: What about the IC50 [3] of the same compound?
A: 336 to 924 nM

Q: And the inhibition at 1 h, 10 µM [4]?
A: 97%

Q: What about the inhibition at 1 h, 10 µM [5] of the same compound?
A: 90%

Q: And the inhibition at 1 h, 10 µM (hERG (KCNH2))?
A: 69%

Q: What about the IC50 (Cannabinoid receptor 1) of the same compound?
A: 1720 nM

Q: What about the IC50 (Cytochrome P450 1A2) of the same compound?
A: > 30000 nM

Q: What about the IC50 (Cytochrome P450 2B6) of the same compound?
A: > 30000 nM

Q: And the IC50 (Cytochrome P450 2C8)?
A: > 30000 nM

Q: What about the IC50 (Cytochrome P450 2C19) of the same compound?
A: > 30000 nM

Q: What about the IC50 (Cytochrome P450 3A4) of the same compound?
A: > 30000 nM

Q: What about the Kp at 2 h [6] of the same compound?
A: 0.9

Q: And the “Cp(f)” value [7]?
A: 14 nM

Q: And the fraction unbound at 2 h [8]?
A: 0.09

Q: And the Activity [9]?
A: Non-Toxic

Q: And the Activity [10]?
A: Non-Toxic

Q: And the Activity [11]?
A: Non-Toxic

Q: And the Activity [12]?
A: Non-Toxic

Q: And the Activity [13]?
A: Non-Toxic

Q: What about the Activity [14] of the same compound?
A: Non-Toxic

Q: What does the source list for `COc1cc(-c2cncc(-c3ccc(C4CCN(C)CC4)cc3)c2C)cc(OC)c1OC`?
A: IC50 (Activin receptor type-1): 7 nM; IC50 (TGF-beta receptor type-1 [15]): > 5000 nM; IC50 (TGF-beta receptor type-1 [16]): 3330 nM; IC50 [17]: 4800 nM; inhibition [18]: Active
